This is an account of results in patent US20030013658A1, “Small peptides and methods for treatment of asthma and inflammation” (Hisatek, LLC, priority 1997, published 2003).

For the assay, the system named is OVA-sensitized/challenged mice. The assay can be described thus: OVA allergen-induced airway inflammation mouse model, 28-day protocol, HK-X i.n. before each challenge. It counts as in vivo. The text has this: The above-described murine model reproduces key features of human asthma. Late-phase allergen-specific pulmonary disease was induced in normal BALB/c mice using ovalbumin (OVA) as allergen. One protocol includes immunization of mice with i.p. OVA on […] and 14, and intranasal (i.n.) administration of OVA on days 14, 25, 26, and 27.
In a mouse model of allergen-induced airway inflammation, the role of mast cell in airway eosinophil infiltration, mucus release, and hyper-responsiveness to methacholine was examined.
Materials were used as described above. Mice received an i.p. injection of 0.2 ml (100 ug) of OVA complexed with aluminum potassium sulfate (alum) on day 0 and 14. On days 14, 25, 26, and 27, mice were anesthetized with 0.2 ml i.p. of ketamine (0.44 mg/ml)/xylazine (6.3 mg/ml) in normal saline before receiving an intranasal (i.n.) dose of 100 ug OVA in 0.05 ml normal saline on days 25, 26, and 27. Lung tissue was obtained 24 hours after the last i.n. challenge on day 28. The control group received normal saline with alum i.p. on days 0 and 14 and normal saline without alum i.n. on days 14, 25, 26, and 27. To assess the effect of HK-X inhibition on OVA induced asthma, HK-X (10 ug/ml) was given i.n. 30 minutes before each i.n challenge on days 25, 26, and 27.
After tying off the left lung at the mainstem bronchus, the right lung was […] three times with 0.4 ml of normal saline, Bronchoalveolar lavage (BAL) fluid cells from a 0.05 ml aliquot of the pooled sample were counted using a hemocytometer and the remaining fluid centrifuged at 4° C. for 10 minutes at 200 g. After resuspension of the cell pellet in normal saline containing 10% BSA, BAL cell smears were made on glass slides. To stain eosinophils, dried slides were stained with Discombe's diluting fluid (0.05% aqueous eosin and 5% (v/v) acetone in distilled water) for 5-8 minutes, rinsed with water for 0.5 minutes and counterstained with 0.07 methylene blue for 2 minutes.
Following BAL, the trachea and left lung (upper and lower lobes) were obtained and fixed in 10% buffered formalin solution at 20° C. for1S hours. After the tissues were processed and embeded in paraffin, the tissues were cut into 5 μm sections and stained with Discombe's solution and counterstained with methylene blue as described above or stained with Hematoxylin and eosin. The eosinophil number per unit airway area (2200 μm^2) was determined by morphometry as previously described. Airway mucus was identified by a variety of staining methods, i.e., methylene blue, Hematoxylin and eosin, mucicarmine, toluidine blue, alcian blue, and alcian blue/periodic acid Schiff (PAS) reaction. Mucin was stained with mucicarmine solution; metanil yellow counterstain was employed. Mucin and sialic acid-rich non-sulfated mucosubstances were stained metachromatically with toluidine blue, pH 4.5. Acidic mucin and sulfated mucosubstances were stained with alcian blue, pH 2.5; nuclear fast red counterstain was used. Neutral and acidic mucosubstances were identified by alcian blue, pH 2.5 and PAS reaction. The degree of mucus plugging of the airways (0.5˜0.8 mm in diameter) also was assessed by morphometry. The percent occlusion of airway diameter by mucus was classified on a semiquantitative scale from 0 to +++++. The histologic and morphometric analyses protocol design were performed by individuals blinded to the protocol design.
Mucus glycoproteins in BAL fluid were assayed by slot blotting and PAS staining as described. Nitrocellulose membranes (0.2 um pore size; Schleicher & Schuell, Keene, N.H.) were wetted in distilled water and then in normal saline before placement in a Minifold II 72-well slot blot apparatus (Schleicher & Schuell). The BAL fluid samples (0.05 ml) and aliquots (0.05-0.75 ml) of a stock solution (2 ug/ml) of human respiratory mucin glycoprotein were blotted onto the nitrocellulose membranes by water suction vacuum, and mucus glycoproteins were visualized by PAS reaction. […]

“Also recorded” adds a separate entry of the source. Where no end group is shown, it is not given here. The star is where a group is joined. For = O=C*

Regarding “f-Met-Leu-Phe-Phe (For-MLFF) [Example 9]”, the “cellular infiltration during asthmatic attack” value (10 μg HK-X intranasally 30 minutes prior to challenge, FIG. 9) was “reduces the cellular infiltration”. The “eosinophil influx into lung tissue and BAL fluid” value (HK-X 10 ug/ml i.n. 30 minutes before each i.n. challenge, day 28) was “markedly reduced eosinophil influx into the lung tissue and BAL fluid”. Further, the “airway mucus release / secretion” value (HK-X i.n. 30 minutes before each OVA challenge days 25, 26, 27, histopathology, listed as HK-X) is “prevented airway mucus release; also recorded: blocked the airway mucus release; also recorded: prevents the airway mucus secretion; also recorded: reduces the mucus secretion in airways”. In addition, for the setting “OVA-sensitized/challenged mice treated with HK-X, in ×10^5 cells”, the “number of eosinophils in the BAL fluid” value is reported as 0.57+0.11 ×10^5. In addition, the “mucus cell induction by OVA immunization and challenge” value (alcian blue histochemistry, FIG. 10) was “prevents the mucus cell induction by OVA immunization and challenge”. Also, for the setting “morphometric analysis, p<0.006 compared to OVA without HK-X, FIG. 11”, the “reduction of eosinophil influx into the lung interstitium” value was 90%.
